Entries after “also recorded” stand apart in the source; their conditions may differ.
Experiments:
[1] = tested on: α-smooth muscle actin (αSMA); test: Immunoblot analysis of αSMA expression in MEFs; type: cell-based, mouse
Description: (§1) hGHRH(1-29)NH2 was obtained from Sigma. Agonist JI-38 was synthesized as reported (24, 26). The peptides were dissolved in phosphate buffered saline (PBS) at the indicated concentrations. Controls contained solvent alone. Fibroblasts were isolated using standard methods and maintained in Dulbecco's Modified Eagle Medium containing 10% FBS and antibiotics/antimycotics. For all experiments, primary fibroblasts of less than 10 passages old were used. For Western blot analysis, antibodies for αSMA, FAK and actin were obtained from Sigma while for SV1; the antibody 2317/5 was used (35). The same antibody was also used for the immunohistochemistry as previously described (36). Histology was performed on standard 5 μm sections of paraffin embedded material stained with hematoxylin/eosin. βGal-staining was performed in lung fibroblasts, isolated from transgenic mice bearing an αSMA-beta galactosidase reporter transgene. After treatment with the peptides for 24 hours, cells were washed (three times each for 5 min) with 0.1M PBS (pH 7.4), and fixed with 0.05% glutaraldehyde in PBS, for 10 min at room temperature. After three more washes, cells were stained with 1 mg/ml of 5-bromo-4-chloro-3indonyl β-D-galactopyranoside, 5 mM potassium ferrocyanide, 5 mM potassium ferricyanide and 2 mM MgCl2) overnight at 37° C.
αSMA is an actin isoform that confers tensional and contractile activity (25,26). Typically SMA is selectively expressed in smooth muscle cells of adult animals, but is induced in activated fibroblasts (myofibroblasts) during wound healing, within the stroma of many tumors, and in general under conditions where there is extensive tissue reorganization and regeneration (27,28). […] Of interest, this effect was significant at a concentration of 100 nM but not 500 nM of either peptide. A similar pattern of expression was found for focal adhesion kinase (FAK), an enzyme which plays a role in cell migration and invasion (29). The activation of αSMA in fibroblasts following GHRH treatment was confirmed in lung fibroblasts isolated from transgenic mice bearing a reporter β-galactosidase (βGal) transgene under the regulation of the αSMA promoter/enhancer (30). Cells from these mice display βGal positivity when αSMA expression is activated (30).

[2] = tested on: focal adhesion kinase (FAK); test: Immunoblot analysis of FAK expression in MEFs; type: cell-based, mouse; details: 100 nM, 24 h, Western blot
Description: as §1
(§2) αSMA is an actin isoform that confers tensional and contractile activity (25,26). […]

[3] = tested on: αSMA promoter-βGal reporter transgene; test: βGal staining of lung fibroblasts from αSMA promoter-βGal reporter transgenic mice; type: cell-based; details: 100 nM and 500 nM, 24 h
Description: as §1, §2

MEFs [4] = test: Scratch wound migration assay of MEFs; type: cell-based, mouse; details: 100 nM, 18 h
Description: (§3) The rate of cell proliferation was evaluated by the Trypan blue exclusion assay under inverted microscope. Cell migration was performed by the “scratch” assay as described, exposing cells to the peptides for 18 h (33). For the transwell-based migration assay, MEFs were seeded on 8 μm pore size transwells (Corning) and after 5 days exposure to the peptides at the indicated concentration, cell number was evaluated in the bottom compartment. All in vitro experiments were performed in triplicate and similar results were obtained.
(§4) Subsequently MEFs were subjected to scratch wound migration assays in vitro, following exposure to GHRH and 31-38 at 100 nM. […] A considerable, notwithstanding not significant, stimulation of cell migration, by about 2-fold as compared to the controls, was also evidenced at 500 nM GHRH or 31-38. In order to rule out the possibility that the results of these two migration assays were simply due to the increased proliferation, MEFs were exposed to the peptide analogs and cell proliferation was evaluated.

MEFs [5] = test: Transwell-based migration assay (8 μm pore) of MEFs; type: cell-based, mouse; details: for increase of migration through 8 μm-pore transwells compared to controls / stimulation of cell migration through transwells compared to controls: 5 days exposure; for increase of migration through 8 μm-pore transwells compared to controls: p<0.05; for stimulation of cell migration through transwells compared to controls: not significant
Description: as §3, §4

MEFs [6] = test: Cell proliferation by Trypan blue exclusion assay in MEFs; type: cell-based, mouse
Description: as §3, §4

[7] = tested on: 4 mm circular skin wounds; test: Wound healing assay in vivo, 4 mm skin biopsy wounds, wound area; details: mice; for wound healing compared to controls: 100 nM applied twice daily to the wound
Description: (§5) Wild-type mice of mixed C57BL6/FVB genetic background, originally obtained by Jackson Laboratories were maintained in our laboratory. Care of animals was in accord with University of Athens Institutional guidelines. The reporter αSMA-βGal mice have been described elsewhere (32). Wound healing assay in vivo was performed after administration of anesthesia (100 mg/kg ketamine, 10 mg/kg xylazine). Mice were shaved in the back, wiped with ethanol and wounds were cut using a biopsy punch (4 mm). The skin was grabbed at dorsal midline and placed over a cardboard backing on one side of the skin fold. The biopsy punch was pressed until both layers of the skin were punched and the cardboard was reached. Four wounds were performed per mouse, two on each side of the dorsal midline, at equal distance, so that the tension of the skin would be equal all over the mouse back and would not influence the contraction of the wounds. The experimental protocol was reviewed and approved by the University of Athens Animal Experimentation Committee. GHRH and JI-38 (100 nM) were applied twice daily in a volume of approximately 50 μl. At least 10 wounds for each of the control (vehicle, PBS), GHRH or JI-38 were observed. In order to avoid study variation due to the wound healing variability between different experimental animals, each mouse was its own control. For wound area measurements digital pictures of wounds were analyzed by the ImageJ (N1H) software. Wound size was monitored over time relative to a 4 mm diameter circular paper cutout placed next to the wound as previously described (38). For histology, 4-6 wounds per time point per group were analyzed. Similar results were obtained among different mice and histological sections for each group and representative are shown.
In order to evaluate the effect of GHRH on wound healing in vivo, wild type mice were subjected to 4 mm skin biopsies and the healing of the inflicted wounds in the presence or absence of GHRH and JI-38 at 100 nM was observed daily. In order to avoid variation in the wound healing process between different experimental animals, a control wound was always included in each mouse, thus permitting paired analysis.

[8] = tested on: 4 mm circular skin wounds; test: Histology, fibroblast counting and Van Gieson staining of 4 mm skin wounds; type: in vivo, mice; details: for content of fibroblasts in wounds (histology) compared to controls: day 5, 100 nM twice daily; for increase of fibroblast density in the wound area: vs controls, direct counting, 100 nM twice daily, p<0.05, FIG. 6
Description: FIG. 6. Quantification of fibroblast content in 4 mm circular skin wounds in mice exposed to GHRH or GHRH agonist JI-38 twice per day at 100 nM on day 5 and 8. Fibroblast number was assessed by direct counting of fibroblast in at least 3 random optic fields in the wound areas under light microscope and expressed relative to the fibroblast content in the controls on day 5. Data are expressed as mean±SEM. *, p<0.05.
as §1, §5
Tissue sections from mice wounds were de-paraffinized and rehydrated in distilled H2O. These sections were then stained in orcein (Sigma) 1% w/v in 96% ethanol for 30 min at room temperature and washed in distilled H2O. […]

pituitary GHRH receptor = details: subcutaneous administration; cited from earlier work
subcutaneous peptidases = details: cited from earlier work
SV1 = test: Immunoblot analysis of SV1 expression in MEFs; type: cell-based, mouse; details: 500 nM, 24 h
Description: as §1, with “After three more washes, cells were stained with 1 mg/ml of 5-bromo-4-chloro-3indonyl β-D-galactopyranoside, 5 mM potassium ferrocyanide, 5 mM potassium ferricyanide and 2 mM MgCl2) overnight at 37° C.” left out
It was evaluated whether MEFs express the receptor for GHRH SV1. Primary MEFs were exposed to GHRH and agonistic GHRH analog JI-38 (24, 26) at 100 nM and 500 nM for 24 h and SV1 expression was then assessed by immunoblot analysis.

| FAK expression [2] | Substance | SMA expression ([1]; 100 nM, 24 h, immunoblot) | SMA expression ([1]; 500 nM, compared with 100 nM) | migration of MEFs in scratch assay compared to controls (MEFs [4]) | migration of MEFs in 8 μm-pore transwell system (figure legend) (MEFs [5]; 100 nM) | increase of migration through 8 μm-pore transwells compared to controls (MEFs [5]; 100 nM) | stimulation of cell migration through transwells compared to controls (MEFs [5]; 500 nM) | proliferation of MEFs (MEFs [6]; 100 nM) | proliferation of MEFs (MEFs [6]; 500 nM) | wound healing compared to controls [7] | day on which acceleration of wound healing was first evidenced ([7]; 100 nM twice daily) [days] | time to nearly complete healing ([7]; 100 nM twice daily) | content of fibroblasts in wounds (histology) compared to controls [8] | collagen fibers in the lamina propria, Van Gieson staining ([8]; day 8, 100 nM twice daily) | histology of epidermis, dermis and stroma ([8]; day 8, 100 nM twice daily) | increase of fibroblast density in the wound area [8] | also measured |
| --- | --- | --- | --- | --- | --- | --- | --- | --- | --- | --- | --- | --- | --- | --- | --- | --- | --- |
| induced | [Dat^1, Gln^8, Orn^12,21, Abu^15, Nle^27, Asp^28, Agm^29]hGH-RH(1-29)NH2 [JI-38] | stimulated; also recorded: induced | less pronounced | considerably increased | significantly increased | ~3 fold | about 2 fold | no considerable effect | no considerable effect | considerable acceleration | 3 | about 10 days post-incision | to a lesser extent; also recorded: considerable increase | could not be seen | dense and rich in fibroblasts | ~40% | increase in fraction of βGal-positive (αSMA-lacZ positive) cells compared to untreated controls ([3]; listed as 31-38): about 3 fold; increase in fraction of βGal-positive (αSMA-lacZ positive) cells compared to untreated controls ([3]; listed as 51-38): ~3 fold; migration of MEFs in scratch assay compared to controls (MEFs [4]; listed as 51-38): increased migration; potency in transwell-based migration assay relative to GHRH (MEFs [5]): more potent than GHRH; migration of MEFs in 8 μm-pore transwell system (figure legend) (MEFs [5]; 500 nM): significantly increased; potency relative to GHRH in in vivo growth hormone release assay (pituitary GHRH receptor): much more potent than GHRH; stability against subcutaneous peptidases (subcutaneous peptidases): resistance to degradation by subcutaneous peptidases |
| induced | hGHRH(1-29)NH2 | stimulated; also recorded: induced | less pronounced | considerably increased; also recorded: increased migration | significantly increased | about 2.5 fold | about 2 fold | stimulated proliferation | no considerable effect | considerable acceleration | 3 | about 10 days post-incision | increased content of fibroblasts; also recorded: considerable increase | nearly normally arranged collagen fibers | almost normal with a diffuse mild inflammatory infiltration | about 80% | levels of SV1 expression (SV1): upregulated; potency histologically and macroscopically at equimolar concentrations ([7]; 100 nM twice daily): more potent than 31-38; reformation of the covering epithelium ([8]; day 8, 100 nM twice daily): almost complete |

From patent US20130261058A1, “ACCELERATION OF WOUND HEALING BY GROWTH HORMONE RELEASING HORMONE AND ITS AGONISTS” (University of Miami, priority 2010, published 2013)
